# Measurements reported in ChEMBL document CHEMBL1152061, “New cytostatic agents obtained by molecular topology” (Bioorg Med Chem Lett, 1996).
# What was measured:
# [1] = test system: HepG2; assay: Compound was evaluated for the cytotoxicity against human hepatocellular carcinoma, HepG2 (ATCC HB8065); assay type: functional
# [2] = Compound was evaluated for the cytotoxicity against human ocular lens epithelium (CECH).; assay type: functional, Lens of camera-type eye
# [3] = test system: HeLa; assay: Compound was evaluated for the cytotoxicity against human cervix epithelioid carcinoma, HeLa (ATCC CCL2).; assay type: functional
# [4] = test system: HeLa; assay: Compound was evaluated for the cytotoxicity against human cervix epithelioid carcinoma, HeLa (ATCC CCL2); assay type: functional
# [5] = Cytotoxicity ratio for Human hepatocellular carcinoma, HepG2 (ATCC HB 8065) cells; assay type: functional
# [6] = Compound was evaluated for the inhibition of cell proliferation of human ocular lens epithelium (CECH).; assay type: functional, tissue-based; details: Lens of camera-type eye
# [7] = test system: HepG2; assay: Compound was evaluated for the inhibition of cell proliferation of human hepatocellular carcinoma, HepG2 (ATCC HB8065).; assay type: functional, cell-based
# [8] = test system: HeLa; assay: Compound was evaluated for the inhibition of cell proliferation of human cervix epithelioid carcinoma, HeLa (ATCC CCL2).; assay type: functional, cell-based
SMILES,MNTC [1],MNTC [2],MNTC [3],MNTC [4],Ratio [5],IC50 [6],IC50 [7],IC50 [8]
CNC(C)C1CCC(N)C(OC2C(N)CC(N)C(OC3OCC(C)(O)C(NC)C3O)C2O)O1.CNC1C(O)C(OC2C(N)CC(N)C(OC3OC(C(C)N)CCC3N)C2O)OCC1(C)O.CNC1C(O)C(OC2C(N)CC(N)C(OC3OC(CN)CCC3N)C2O)OCC1(C)O.O=S(=O)(O)O (stereo unspecified) [GENTAMICIN MIXTURE],210 µM,210 µM,>1050 µM,,,,,
CCC[C@@H]1C[C@@H](C(=O)N[C@@H]([C@H]2O[C@H](SC)[C@H](O)[C@@H](O)[C@H]2O)[C@H](C)Cl)N(C)C1 [CLINDAMYCIN],>5000 µM,1000 µM,,1000 µM,,,,
Cc1c(C(=O)O)c(O)cc2c1C(=O)c1c(O)c([C@@H]3O[C@H](CO)[C@@H](O)[C@H](O)[C@H]3O)c(O)c(O)c1C2=O [CARMINIC ACID],2500 µM,2200 µM,>5000 µM,,0.93,1650 µM,1770 µM,3730 µM
CCn1cc(C(=O)O)c(=O)c2cnc(N3CCCC3)nc21 [PIROMIDIC ACID],120 µM,250 µM,100 µM,,1.67,184 µM,110 µM,97 µM
CN(C)[C@@H]1C(O)=C(C(N)=O)C(=O)[C@@]2(O)C(O)=C3C(=O)c4c(O)cccc4[C@@](C)(O)[C@H]3C[C@@H]12 [TETRACYCLINE],,,,,1.62,207 µM,128 µM,51 µM
C[C@H]1c2cccc(O)c2C(=O)C2=C(O)[C@]3(O)C(=O)C(C(N)=O)=C(O)[C@@H](N(C)C)[C@@H]3[C@@H](O)[C@@H]21.O [DOXYCYCLINE],60 µM,60 µM,40 µM,,0.66,35 µM,53 µM,30 µM
CO[C@@]12[C@H](COC(N)=O)C3=C(C(=O)C(C)=C(N)C3=O)N1C[C@@H]1N[C@@H]12 [MITOMYCIN],0.7 µM,,2 µM,,0.33,0.09 µM,0.27 µM,
O=c1[nH]cc(F)c(=O)[nH]1 [FLUOROURACIL],100 µM,,40 µM,,0.09,8 µM,85 µM,
